The results in this text go back to US9562035B2, “Benzamide derivative useful as FASN inhibitors for the treatment of cancer” (Janssen Pharmaceutica NV, priority 2013, dated 2017).

Assay [1] has as its system A2780 ovarian cells. The experiment in a line: A2780 Ovarian Cell Proliferation Assay in Lipid Reduced Medium, with Palmitate (control). The following applies: Homo sapiens, A2780; lipid reduced medium, 25 μM palmitate, 96 h, MTT; read-out: Proliferation A2780 with Palmitate pIC50 (converted). In kind it is cell-based. The gist of the method: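 A2780 cells were seeded in RPMI1640 with 10% FCS, then switched next day to medium with 10% lipid-reduced serum. Compound was added with final 25 μM palmitate, 0.2% fatty-acid-free BSA and 0.2% DMSO, and incubated 96 h at 37 °C. Read-out was MTT absorbance at 544 nm; pIC50 = −log(IC50) from curve fit.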

Assay [2] has as its target T1, hFASN enzyme (full length) (Homo sapiens, UniProt P49327).
T1 construct: 10 μL hFASN enzyme (full length, 300 ng, purified in house); made in house
The experiment in a line: Fatty Acid Synthase (FASN) Inhibition Scintillation Proximity Assay. In kind it is biochemical. The settings on record: for IC50: mean where tested more than once, ~ = standard error of pIC50 larger than 0.5; for inhibition at 10 µM: read-out: FASN % Effect @1E−05M. In outline:
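Purified full-length human FASN (300 ng) incubated 60 min at room temperature with NADPH, [3H]-acetyl-CoA and malonyl-CoA in 100 mM KH2PO4 pH 7.5, 1 mM DTT; compound at 30 μM to 0.01 μM. [3H]-palmitate captured by SPA imaging beads; IC50 from 4-parameter fit, reported as pIC50.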
A general note: In a scintillation proximity assay essentially only radioactivity close to the scintillant gives light.

For assay [3], the system named is A2780 ovarian cells. The experiment in a line: A2780 Ovarian Cell Proliferation Assay in Lipid Reduced Medium, without Palmitate. In kind it is cell-based. The settings on record: Homo sapiens, A2780; lipid reduced medium, without palmitate, 96 h, MTT; read-out: Proliferation A2780 w/o Palmitate pIC50 (converted). The gist of the method: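 A2780 cells were seeded in 10% FCS medium and switched next day to 10% lipid-reduced serum without palmitate. Compounds at 0.01–30 μM were added with 0.2% DMSO, 0.2% fatty-acid-free BSA and 0.25% ethanol final. After 96 h, MTT absorbance at 544 nm was normalized to plate controls, and IC50/pIC50 came from a 4-parameter logistic fit.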

In assay [4] the target is T2, FASN Keto-reductase Domain (Homo sapiens, UniProt P49327).
T2 construct: 10 μL hFASN enzyme (full length, 300 ng, purified in house) and 360 μM NADPH; made in house
T2 sequence (P49327 whole entry, the tested form may be a part): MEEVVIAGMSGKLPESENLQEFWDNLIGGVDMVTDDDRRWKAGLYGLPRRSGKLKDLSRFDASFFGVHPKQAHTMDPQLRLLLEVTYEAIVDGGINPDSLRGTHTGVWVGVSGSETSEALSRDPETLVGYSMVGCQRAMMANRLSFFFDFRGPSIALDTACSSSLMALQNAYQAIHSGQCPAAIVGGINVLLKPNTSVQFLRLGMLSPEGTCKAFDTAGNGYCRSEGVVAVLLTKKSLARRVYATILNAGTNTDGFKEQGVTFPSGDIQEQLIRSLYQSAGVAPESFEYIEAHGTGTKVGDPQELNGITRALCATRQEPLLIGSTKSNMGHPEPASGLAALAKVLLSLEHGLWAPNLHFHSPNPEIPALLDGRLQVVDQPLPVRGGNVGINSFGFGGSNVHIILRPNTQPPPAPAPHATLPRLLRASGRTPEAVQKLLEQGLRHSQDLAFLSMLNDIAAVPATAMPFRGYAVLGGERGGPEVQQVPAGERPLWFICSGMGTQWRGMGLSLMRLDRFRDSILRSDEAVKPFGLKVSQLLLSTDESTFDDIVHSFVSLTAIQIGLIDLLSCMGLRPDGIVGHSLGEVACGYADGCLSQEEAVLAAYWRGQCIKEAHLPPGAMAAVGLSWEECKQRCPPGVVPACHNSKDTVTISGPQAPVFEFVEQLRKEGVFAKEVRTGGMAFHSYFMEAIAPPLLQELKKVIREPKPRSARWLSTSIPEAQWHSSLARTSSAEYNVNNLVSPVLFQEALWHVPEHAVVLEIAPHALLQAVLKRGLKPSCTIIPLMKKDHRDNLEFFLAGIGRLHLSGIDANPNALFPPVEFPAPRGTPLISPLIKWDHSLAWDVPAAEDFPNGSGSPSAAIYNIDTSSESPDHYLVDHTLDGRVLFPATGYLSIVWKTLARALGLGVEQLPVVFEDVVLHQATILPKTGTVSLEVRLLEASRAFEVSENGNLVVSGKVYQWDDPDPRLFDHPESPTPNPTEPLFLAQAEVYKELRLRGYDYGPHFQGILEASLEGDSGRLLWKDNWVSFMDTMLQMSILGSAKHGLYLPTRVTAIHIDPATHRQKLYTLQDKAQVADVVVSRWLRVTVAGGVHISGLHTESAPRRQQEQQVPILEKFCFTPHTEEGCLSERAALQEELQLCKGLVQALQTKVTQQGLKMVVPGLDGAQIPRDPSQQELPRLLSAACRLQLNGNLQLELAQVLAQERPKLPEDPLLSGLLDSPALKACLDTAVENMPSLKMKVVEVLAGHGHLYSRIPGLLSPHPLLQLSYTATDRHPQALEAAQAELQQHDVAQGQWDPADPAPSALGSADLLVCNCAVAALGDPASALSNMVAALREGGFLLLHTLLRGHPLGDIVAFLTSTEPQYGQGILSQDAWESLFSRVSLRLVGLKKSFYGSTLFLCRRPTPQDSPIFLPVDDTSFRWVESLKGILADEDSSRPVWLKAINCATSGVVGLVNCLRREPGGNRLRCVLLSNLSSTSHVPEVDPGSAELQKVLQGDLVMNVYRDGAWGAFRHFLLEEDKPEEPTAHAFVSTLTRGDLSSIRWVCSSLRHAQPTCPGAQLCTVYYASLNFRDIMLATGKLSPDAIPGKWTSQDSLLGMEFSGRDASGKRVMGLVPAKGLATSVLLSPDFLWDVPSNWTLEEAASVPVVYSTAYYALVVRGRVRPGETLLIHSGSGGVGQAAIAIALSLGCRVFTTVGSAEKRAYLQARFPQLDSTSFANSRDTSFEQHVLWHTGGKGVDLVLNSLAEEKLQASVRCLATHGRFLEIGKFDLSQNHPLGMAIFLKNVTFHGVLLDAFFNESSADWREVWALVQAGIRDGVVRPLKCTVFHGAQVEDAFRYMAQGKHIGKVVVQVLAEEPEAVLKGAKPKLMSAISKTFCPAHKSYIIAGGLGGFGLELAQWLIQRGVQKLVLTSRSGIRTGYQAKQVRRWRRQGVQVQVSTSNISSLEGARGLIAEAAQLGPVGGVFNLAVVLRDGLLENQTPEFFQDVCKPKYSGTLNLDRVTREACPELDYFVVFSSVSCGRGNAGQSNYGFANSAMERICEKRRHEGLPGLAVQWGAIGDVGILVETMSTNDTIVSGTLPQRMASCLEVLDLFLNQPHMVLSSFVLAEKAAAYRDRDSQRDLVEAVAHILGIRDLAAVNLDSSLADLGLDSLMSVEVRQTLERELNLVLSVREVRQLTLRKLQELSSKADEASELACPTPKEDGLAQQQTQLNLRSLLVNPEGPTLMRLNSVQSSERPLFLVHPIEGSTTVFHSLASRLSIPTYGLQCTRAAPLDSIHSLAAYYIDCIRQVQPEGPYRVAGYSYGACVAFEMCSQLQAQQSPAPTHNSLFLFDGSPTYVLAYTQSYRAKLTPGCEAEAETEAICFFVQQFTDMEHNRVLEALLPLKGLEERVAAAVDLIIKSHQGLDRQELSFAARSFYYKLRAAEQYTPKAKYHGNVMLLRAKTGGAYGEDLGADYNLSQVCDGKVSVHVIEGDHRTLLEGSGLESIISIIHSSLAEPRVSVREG
The experiment in a line: Fatty Acid Synthase Keto-Reductase Domain (FASN KR) Inhibition. In kind it is biochemical. The following applies: mean where tested more than once; read-out: FASN K-R Domain pIC50 (converted). The gist of the method:
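Full-length human FASN (300 ng) in 100 mM KH2PO4 pH 7.5 with 360 μM NADPH and 180 mM ethyl acetoacetate (stock); A340 decrease read over 20 min at room temperature.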

Molecules are shown by their SMILES. Bounds are passed on as bounds.

T1 sequence (P49327 whole entry): as the sequence (P49327 whole entry, the tested form may be a part) above

In the case of `COc1ccc(C(=O)N2CCC(c3ccc(-c4cnn(C)c4)cc3)CC2)cc1NC(=O)c1ccc(Cl)nc1` [Compound 231, 6-chloro-N-(2-methoxy-5-(4-(4-(1-methyl-1H-pyrazol-4-yl)phenyl)piperidine-1-carbonyl)phenyl)nicotinamide], the IC50 was more than 10 µM in assay [1], 0.0339 µM in assay [2], 0.115 µM in assay [3] and 0.107 µM in assay [4]. In addition, the inhibition at 10 µM in assay [2] was found to be 114%.
With `Cc1ccc(C(=O)N2CCC(c3ccc4c(c3)NC(=O)CC4)CC2)cc1NC(=O)c1ccc(NC(C)C)nc1` [Compound 35, 6-(isopropylamino)-N-(2-methyl-5-(4-(2-oxo-1,2,3,4-tetrahydroquinolin-7-yl)piperidine-1-carbonyl)phenyl)nicotinamide], the IC50 was approximately 8.91 µM in assay [1], 0.437 µM in assay [2], 0.676 µM in assay [3] and 0.794 µM in assay [4]. For the same molecule, in assay [2], the inhibition at 10 µM worked out at 99%.
Turning to `Cc1ccc(C(=O)N2CCC(c3ccc(-c4cnn(C)c4)cc3)CC2)cc1NC(=O)c1sccc1C` [Compound 149, 3-methyl-N-(2-methyl-5-(4-(4-(1-methyl-1H-pyrazol-4-yl)phenyl)piperidine-1-carbonyl)phenyl)thiophene-2-carboxamide], the IC50 in assay [1] is 9.55 µM; in assay [2], 0.0575 µM; in assay [3] it was 0.457 µM; in assay [4], 0.214 µM. In addition, in assay [2], the inhibition at 10 µM turned out to be 103%.
For `CCCCC(C)N1CCC(C(=O)Nc2cc(C(=O)N3CCC(c4ccc(-c5cnn(C)c5)cc4)CC3)ccc2C)C1` (stereo not drawn) [Compound 197, 1-(hexan-2-yl)-N-(2-methyl-5-(4-(4-(1-methyl-1H-pyrazol-4-yl)phenyl)piperidine-1-carbonyl)phenyl)pyrrolidine-3-carboxamide] the same measures were more than 10 µM, 0.11 µM, 0.288 µM, 0.309 µM and 98%.
For `Cc1ccc(C(=O)N2CC(c3ccc(-c4ccnn4C)cc3)C2)cc1NC(=O)c1ccc(N(C)C2CCN(C)CC2)nc1` [Compound 61, 6-(methyl(1-methylpiperidin-4-yl)amino)-N-(2-methyl-5-(3-(4-(1-methyl-1H-pyrazol-5-yl)phenyl)azetidine-1-carbonyl)phenyl)nicotinamide], in that order: 11 µM, 0.0155 µM, approximately 0.0912 µM, 0.0692 µM and 103%.
For `Cc1ccc(C(=O)N2CC(c3ccc(-c4cccnc4N)cc3)C2)cc1NC(=O)c1ccc(N2CCOCC2)nc1` [Compound 260, N-(5-(3-(4-(2-aminopyridin-3-yl)phenyl)azetidine-1-carbonyl)-2-methylphenyl)-6-morpholinonicotinamide] the same measures were more than 10 µM, 0.0251 µM, 0.0347 µM, 0.102 µM and 112%.
Regarding `Cc1ccc(C(=O)N2CCC(c3ccc(-c4cnn(C)c4)cc3)CC2)cc1NC(=O)C1CCN(C2CCC2)C1` (stereo not drawn) [Compound 241, 1-cyclobutyl-N-(2-methyl-5-(4-(4-(1-methyl-1H-pyrazol-4-yl)phenyl)piperidine-1-carbonyl)phenyl)pyrrolidine-3-carboxamide], the IC50 in assay [1] is more than 10 µM; in assay [2], 0.145 µM; in assay [3] it was 0.148 µM; in assay [4], 0.468 µM. Also, in assay [2], the inhibition at 10 µM is 101%.
As for `Cc1ccc(C(=O)N2CCC(c3ccc(-c4cnn(C)c4)cc3)CC2)cc1NC(=O)C1CN(C2CCC2)C1` [Compound 240, 1-cyclobutyl-N-(2-methyl-5-(4-(4-(1-methyl-1H-pyrazol-4-yl)phenyl)piperidine-1-carbonyl)phenyl)azetidine-3-carboxamide], the IC50 is more than 10 µM in assay [1], 0.0832 µM in assay [2], 0.162 µM in assay [3] and 0.407 µM in assay [4]. Besides, in assay [2], the inhibition at 10 µM worked out at 106%.
For `Cc1ccc(C(=O)N2CCC(c3ccc(-c4cnn(C)c4)cc3)CC2)cc1NC(=O)c1cnccc1Cl` [Compound 114, 4-chloro-N-(2-methyl-5-(4-(4-(1-methyl-1H-pyrazol-4-yl)phenyl)piperidine-1-carbonyl)phenyl)nicotinamide], in that order: more than 10 µM, 0.316 µM, 0.537 µM, 0.631 µM and 92%.
For `Cc1ccc(C(=O)N2CCC(c3ccc(-c4cnn(C)c4)cc3)CC2)cc1NC(=O)[C@H]1CCCN1C` [Compound 239, (R)-1-methyl-N-(2-methyl-5-(4-(4-(1-methyl-1H-pyrazol-4-yl)phenyl)piperidine-1-carbonyl)phenyl)pyrrolidine-2-carboxamide] the same measures were more than 10 µM, 0.123 µM, 0.195 µM, 0.457 µM and 110%.
For `Cc1ccc(C(=O)N2CCC(c3ccc(-c4cnn(C)c4)cc3)CC2)cc1NC(=O)c1nc(Br)cs1` [Compound 244, 4-bromo-N-(2-methyl-5-(4-(4-(1-methyl-1H-pyrazol-4-yl)phenyl)piperidine-1-carbonyl)phenyl)thiazole-2-carboxamide] the same measures were 8.32 µM, 0.0447 µM, 0.0955 µM, 0.191 µM and 106%.
`Cc1ccc(C(=O)N2CCC(c3ccc(-c4cnn(C)c4)cc3)CC2)cc1NC(=O)c1ccc(Cl)nc1` [Compound 102, 6-Chloro-N-(2-methyl-5-(4-(4-(1-methyl-1H-pyrazol-4-yl)phenyl)piperidine-1-carbonyl)phenyl)nicotinamide]: the IC50 in assay [1] is more than 10 µM; in assay [2] it was 0.0186 µM; in assay [3], 0.0363 µM; in assay [4], 0.038 µM. In addition, the inhibition at 10 µM in assay [2] was found to be 105%.
Turning to `Cc1ccc(C(=O)N2CC(c3ccc(-c4ccc5cnn(C)c5c4)cc3)C2)cc1NC(=O)c1ccc(NC(C)C)nc1` [Compound #36, 6-(isopropylamino)-N-(2-methyl-5-(3-(4-(1-methyl-1H-indazol-6-yl)phenyl)azetidine-1-carbonyl)phenyl)nicotinamide], the IC50 in assay [1] was 2.19 µM; in assay [2], 0.0437 µM; in assay [3], approximately 0.0741 µM; in assay [4], 0.0275 µM. Also, the inhibition at 10 µM in assay [2] was 106%.
Consider `CCCCCCN1CCC(C(=O)Nc2cc(C(=O)N3CCC(c4ccc(-c5cnn(C)c5)cc4)CC3)ccc2C)C1` (stereo not drawn) [Compound 218, 1-hexyl-N-(2-methyl-5-(4-(4-(1-methyl-1H-pyrazol-4-yl)phenyl)piperidine-1-carbonyl)phenyl)pyrrolidine-3-carboxamide], for which the IC50 in assay [1] is 8.51 µM; in assay [2], 0.145 µM; in assay [3], 0.407 µM; in assay [4] it was 0.389 µM. The inhibition at 10 µM in assay [2] is 105%.
For `Cc1ccc(C(=O)N2CCC(c3ccc(-c4cnn(C)c4)cc3)CC2)cc1NC(=O)C1CN(C2CCCCC2)C1` [Compound 191, 1-cyclohexyl-N-(2-methyl-5-(4-(4-(1-methyl-1H-pyrazol-4-yl)phenyl)piperidine-1-carbonyl)phenyl)azetidine-3-carboxamide], in that order: 9.33 µM, 0.0692 µM, 0.141 µM, 0.191 µM and 103%.
